Reference: patent US10946098B2, “Activatable two-component photosensitizers” (Carnegie Mellon University, priority 2014, dated 2021)
Where two headings read alike, the source gives them in different places.

Legend:
[1] = Absorbance of free fluorogens; assay type: physicochemical; conditions: for x band abs max (nm) / y band abs max (nm) / λAbs (nm) (Fluorogen): free fluorogen; for ε (10^4 M^−1cm^−1): second value in parentheses not explained
dL5 [2] = test: Fluorescence excitation/emission of fluorogen bound to dL5; assay type: physicochemical; conditions: for λem (nm) / λex (nm): FAP-fluorogen complex; for +dL5 fluor ex (nm): main value
dL5 [3] = test: KD measurement of fluorogen-dL5; conditions: fluorogen binding to dL5
Experimental: (§1) FIGS. 7A-7C: FIG. 7A) KD measurement of MG-dL5 and MG2I-dL5, FIG. 7B) absorption spectra of 1 μM MG2I and MG2I with 5 μM dL5 (shorter wavelength absorption peak), FIG. 7C): fluorescence quantum yield measurement of MG2I-dL5 (squares) using Cy5 as standard (circles).
The iodination effect produces a 22 nm bathochromic shift of the x band of free MG while maintaining the FAP-fluorogen interactions. The iodination also renders the excitation maximum of MG2I-dL5 to 666 nm (compare to MG-dL5 at 633 nm), into the near infrared range (Table 1). FIGS. 7A-7C depict (FIG. 7A) KD measurement of MG-dL5 and MG2I-dL5, (FIG. 7B) absorption spectra of 1 μM MG2I and MG2I with 5 μM dL5 (shorter wavelength absorption peak), and (FIG. 7C) fluorescence quantum yield measurement of MG2I-dL5 (squares) using Cy5 as standard (circles).

cells = test: Toxicity of free MG2I to cells; assay type: cell-based
wild-type HEK cells = assay type: cell-based
Experimental: (§2) FAP-conjugated HER1 affibody was used to target EGFR over-expressing tumor cells A431 in cell cultures mixed with wild-type HEK cells. 250 nM affiFAP was first added to label A431 cells, followed by 250 nM MG2I/MG. […] It is shown that the tumor cells need to be targeted first by the HER1-dL5 affibody, and become accessible to photosentisization only after MG2I is added and bound to the affiFAP. […] Thus, by controlling the specific generation of singlet oxygen on the tumor site, we can eliminate the nonspecific damage to normal cells. […] This improvement to the current state-of-the-art photodynamic therapy will be of great utility, for example with the methods and modularity described herein.

SKBR3 cancer cells = test: Selective killing of SKBR3 cancer cells; assay type: cell-based; conditions: 100 nM HER2 conjugated dL5 then 100 nM MG2I
Experimental: 100 nM HER2 conjugated dL5 was first added to the cells following by 100 nM MG2I.
as §2

[4] = Singlet oxygen quantum yield by ADPA bleaching, AlPcS4 standard; assay type: physicochemical; conditions: singlet oxygen quantum yield of FAP-fluorogen
Experimental: Determination of singlet oxygen quantum yield: PBS 7.4 solution contains 0.1 mM ADPA and optically matched samples are illuminated from a 660 nm LED source, at different time point, its fluorescence decrease at 374/402 nm was recorded, the data was then fitted into a linear plot, the ψΔ was then calculated from the slopes using the equation below.
To test the two-component FAP photosensitizer ability to generate singlet oxygen, anthracene-9, 10-dipropionic acid (ADPA), a commonly used singlet oxygen scavenger, was used. This was done by monitoring the fluorescence disappearance of ADPA at 374/402 nm. Aluminum phthalocyanine tetrasulfonate (AlPcS4) was used as the standard for the measurement of ^1O2 generation (ψΔ=0.34). Optically matched solutions of MG2I-dL5 and AlPcS4 at 660 nm are compared and the singlet oxygen quantum yield of the two-component FAP photosensitizer is estimated to be 0.13 (FIG. 8). […] This confirmed the specific generation of singlet oxygen from the complex. Importantly, both the fluorescent quantum yield and the singlet oxygen quantum yield of free dyes are not detectable under normal excitation conditions, due to the very short excited state lifetime (<1 […]). […] Moreover, with near infrared excitation, this genetically encoded complex is accessible for a range of tumors and can also be used as tool for tumor visualization with fair fluorescence.

[5] = system: cardiac function of zebrafish larvae; test: Photo-ablation of cardiac function of larval zebrafish; assay type: in vivo; conditions: 500 nM fluorogen 3 hours
Description: MG2I-FAP induced photo-ablation of cardiac function of transgenic zebrafish. […] In both control groups, development proceeded normally. Scale Bar=1000 μm and applied to all images.
First, transgenic zebrafish lines were produced that expressed a cytoplasmic FAP-mCerulean3 (FAP-mCer3) tandem protein under control of the heart-specific myosin light chain 7 (my17, also known as cmlc2) promoter, Tg(my17: FAP-mCer3). […] FIG. 19 are photomicrographs of zebrafish larvae as described above. White denotes the presence of cytoplasmic FAP-mCerulean3 in live cells.

[6] = system: EGFR over-expressing tumor cells A431; test: Selective cancer cell killing, A431 mixed with wild-type HEK; assay type: cell-based; conditions: 250 nM affiFAP (FAP-conjugated HER1 affibody) then 250 nM dye
Experimental: AffiFAP/FAP was added first and allow cell targeting for 30 minutes, MG2I/MG-ester was then added and incubated for another 30 minutes (No washing is needed in the process). After 1 min illumination (60× objective, 2.43 W/cm^2), Dead/Live working solution was used to replace the cell culture medium. Two-color viability fluorescence assay was performed after 1 hr staining
as §2

dL5 [7] = test: Fluorescence quantum yield using Cy5 as standard; assay type: physicochemical; conditions: fluorescence quantum yield of FAP-fluorogen, PBS7.4
Experimental: as §1
The 3, 5-diiodo-4-hydroxybenzaldehyde, anthracene-9, 10-dipropionic acid disodium salt ADPA, were purchased from VWR international and Sigma-Aldrich, tetrasulfonated aluminum phthalocyanine AlPcS4 from frontier scientific, PEG-catalase, PEG-SOD, hoechst dye 33342, live/dead cell viability/cytotoxicity kit L-3224 and dihydroethidium (hydroethidine) D11347 were from Molecular Probes. Basic media was from Invitrogen. H NMR and C NMR data are recorded from Bruker Avance™ 300 MHz and 500 MHz. Mass spectra are obtained from Thermo-Fisher LCQ ESI/APCI Ion Trap. Final products are purified by silica, neutral alumina and reverse-phase chromatography, purity were tested by UPLC. Raw absorbance values of respective free dyes and dye-FAP complex were measured on a PerkinElmer Lambda45 spectrophotometer. Fluorogenic enhancement was measured in 96 well microplates on a Tecan Safire2 reader. Quantum yields were determined by comparing integrated spectra of MG2I-dL5 complexes with Cy5 in PBS7.4 on a Quantamaster monochromator fluorimeter (Photon Technology International).

[8] = system: HEK cells transfected to express FAP
Experimental: Dead/Live cell viability assay: 400 nM dye (MG/MG-2I) was pre-complex with cells for 30 mins. After illumination, the buffer was replaced with 2 μM calcein AM and 4 μM EthD-1 working solution. After 30 min incubation at room temperature, the two-color fluorescence cell viability test was conducted with the cells.
Cell killing experiment and cell death count: MG/MG2I was added to the cells 30 minutes before illumination (for A431 and SKBR3 cells, affibody conjugated FAP was added 1 hour prior to illumination). Microscope and light box are used as illumination source, different light dose are achieved by changing of light intensity or illumination time. For death cell counting, the medium was replaced with PBS containing 1 uM propidium iodide and 8 uM Hoechst right after illumination. After 30 min incubation, cells were counted and the death cell ratio is determined by the ratio of PI to Hoechst.
The light induced cytotoxicity of two-component FAP photosensitizer on HEK cells, which were transfected to express FAP on cell surface, was tested. 400 nM MG2I/MG was added to the cell medium 30 minutes prior to illumination; 1 minute of continuous red light illumination from a confocal microscope was applied to cells (40× objective, 640 nm excitation, 0.76 W/cm^2).
The cause of MG2I-dL5 induced cell cytotoxicity was further delineated by adding different ROS quenchers to the solutions.

[9] = standard for 1O2 generation; cited from earlier work
[10] = Recombinant ZEGFR:1907/FAPdL5** probes binding to malachite green; conditions: for Kd / kon (*10^6M^−1S^−1): binding to malachite green; for Em (nm) / Ex (nm): probe with MG
Experimental: N and C-terminal fusions were evaluated, as well as a single FAP flanked by two affibodies for their properties to bind and activate MG-fluorogens as well as their binding to target receptors on cultured cells.
Characterization of recombinant probes affibody ZEGFR:1907 (A) and FAPdL5** (F) binding to malachite green.

[11] = system: cell surface EGFR (A431 cells); test: Cell surface EGFR labeling by ZEGFR:1907 fusion probes on A431 cells; assay type: binding, human
Experimental: The labeling of cell surface EGFR by ZEGFR:1907 fusion probes was tested with A431 cells, a cell line that expressed EGFR at high levels, ˜2000000/cell. […] By equilibrium binding fluorescence, the cell surface dissociation constant was estimated to be 122±16 nM for AF, 101±17 nM for FA and 37±6 nM for AFA.

[12] = transgenic Tg(my17: FAP-mCer3), 48 hpf, 12 minutes 659 nm 242 mW/cm^2

In the case of “Methylium, bis[4-(dimethylamino)phenyl](4-(3-carboethoxypropyl)-3,5-diiodo-phenyl)-chloride [MG2I]”, the “x band abs max (nm)” value [1] is reported as 628 nm, the “y band abs max (nm)” value [1] is reported as 440 nm and the “λAbs (nm) (Fluorogen)” value [1] is reported as 628 nm. For the same molecule, the “bathochromic shift of the x band relative to free MG” value ([1]; iodination effect) was 22 nm, the “ε (10^4 M^−1cm^−1)” value [1] was 10.1(9.02) 10^4 M^−1cm^−1 and the “λem (nm)” value (dL5 [2]) was 693 nm. The “λex (nm)” value (dL5 [2]) was 666 nm, the “+dL5 fluor em (nm)” value (dL5 [2]; bound to dL5) was 693 nm and the “+dL5 fluor ex (nm)” value (dL5 [2]; bound to dL5) was 666 nm. The Kd (dL5 [3]) was 0.073 nM, the toxicity to cells (cells) was “no toxicity to cells” and the light induced cytotoxicity (wild-type HEK cells) was “no observed light-induced cytotoxicity”. For the same molecule, the “killing of SKBR3 cells” value (SKBR3 cancer cells) was “selective killing”, the ΦΔ [4] was 0.13 and the “heart function immediately after illumination” value (“heart function immediately” for short) [5, 12] was “no sign of heart beat or blood circulation”. The “heart function immediately” value ([5]; wild-type zebrafish, 12 minutes 659 nm) was “normal”, the “killing of A431 cells upon illumination” value [6] was “only the EGFR1-expressing tumor cells were killed” and the ΦF (dL5 [7]) was 0.037.

For `[N-]=[N+]=[N-]` [sodium azide, reference compound], the “inhibition of MG2I-dL5 induced cytotoxicity by ROS quencher” value ([8]; concentrations higher than 10 mM) was “totally inhibited”.

With `CCOC(=O)CCCOc1ccc(C(=C2C=CC(=[N+](C)C)C=C2)c2ccc(N(C)C)cc2)cc1` [MG, reference compound] the “x band abs max (nm)” value [1] was 606 nm, the “y band abs max (nm)” value [1] was 466 nm and the “λAbs (nm) (Fluorogen)” value [1] was 606 nm. For the same molecule, the “ε (10^4 M^−1cm^−1)” value [1] was 10.3(9.18) 10^4 M^−1cm^−1, the “λem (nm)” value (dL5 [2]) was 668 nm and the “λex (nm)” value (dL5 [2]) was 633 nm. The “+dL5 fluor em (nm)” value (dL5 [2]; bound to dL5) was 668 nm, the “+dL5 fluor ex (nm)” value (dL5 [2]; bound to dL5) was 636 nm and the “+dL5 fluor ex (nm), value in parentheses” value (dL5 [2]; bound to dL5, second (minor) excitation peak printed in parentheses) was 482 nm. The Kd (dL5 [3]) was 0.005 nM, the ΦΔ [4] was under 0.005 and the “heart function immediately” value [5, 12] was “normal”. The ΦF (dL5 [7]) was 0.123.

In the case of “Aluminum phthalocyanine tetrasulfonate [AlPcS4]”, the ψΔ of standard [9] is listed as 0.34.

For “AF: fusion of affibody ZEGFR:1907 (A) and FAPdL5** (F)”, the Kd [10] was 0.43 ± 0.12 nM, the “kon (*10^6M^−1S^−1)” value [10] was 1.05 *10^6M^−1S^−1 and the emission peak ([10]; in the presence of MG) was 664 nm. The major excitation peak ([10]; in the presence of MG) was 636 nm, the minor excitation peak ([10]; in the presence of MG) was 480 nm and the “Em (nm)” value [10] was 664 nm. The “Ex (nm)” value [10] was 634 nm and the “cell surface labeling, live-cell imaging” value [11] was “clear cell surface labeling”.

For “AFA: single FAPdL5** flanked by two ZEGFR:1907 affibodies”, the Kd [10] was 0.53 ± 0.11 nM, the “kon (*10^6M^−1S^−1)” value [10] was 1.02 *10^6M^−1S^−1 and the emission peak ([10]; in the presence of MG) was 664 nm. The “fluorescence intensity compared to F and AF” value ([10]; in the presence of MG) was “enhanced fluorescence intensity”, the major excitation peak ([10]; in the presence of MG) was 636 nm and the minor excitation peak ([10]; in the presence of MG) was 480 nm. For the same molecule, the “Em (nm)” value [10] was 666 nm, the “Ex (nm)” value [10] was 634 nm and the “cell surface labeling, live-cell imaging” value [11] was “clear cell surface labeling”.

In the case of “affibody: affibody ZEGFR:1907 alone (SEQ ID NO: 18)”, the “fluorescence activation or fluorogen binding by affibody alone” value [10] is reported as “No detectable fluorescence activation or fluorogen binding”.

B1: catalase: ROS quencher enzyme (protein, UniProt P00432 2-527, looked up)
Catalase: ADNRDPASDQMKHWKEQRAAQKPDVLTTGGGNPVGDKLNSLTVGPRGPLLVQDVVFTDEMAHFDRERIPERVVHAKGAGAFGYFEVTHDITRYSKAKVFEHIGKRTPIAVRFSTVAGESGSADTVRDPRGFAVKFYTEDGNWDLVGNNTPIFFIRDALLFPSFIHSQKRNPQTHLKDPDMVWDFWSLRPESLHQVSFLFSDRGIPDGHRHMNGYGSHTFKLVNANGEAVYCKFHYKTDQGIKNLSVEDAARLAHEDPDYGLRDLFNAIATGNYPSWTLYIQVMTFSEAEIFPFNPFDLTKVWPHGDYPLIPVGKLVLNRNPVNYFAEVEQLAFDPSNMPPGIEPSPDKMLQGRLFAYPDTHRHRLGPNYLQIPVNCPYRARVANYQRDGPMCMMDNQGGAPNYYPNSFSAPEHQPSALEHRTHFSGDVQRFNSANDDNVTQVRTFYLKVLNEEQRKRLCENIAGHLKDAQLFIQKKAVKNFSDVHPEYGSRIQALLDKYNEEKPKNAVHTYVQHGSHLSAREKANL
modifications: PEG
With B1 the “inhibition of MG2I-dL5 induced cytotoxicity by ROS quencher” value ([8]; up to 1000 U/mL) was “very little effect in rescuing cell death”.
